In publication PMC10572522, “A Designed Analog of an Antimicrobial Peptide, Crabrolin, Exhibits Enhanced Anti-Proliferative and In Vivo Antimicrobial Activity” (International Journal of Molecular Sciences, 2023):
Residues, ends and D or L forms follow the SMILES beside them.

How the values were obtained:
[1] = tested on: S. aureus (NCTC 10788); assay: Antimicrobial susceptibility assay (MIC/MBC); type: cell-based, Staphylococcus aureus; settings: for MIC: MHB, 37 °C, 20 h
Method: (§1) Six bacteria were tested in this experiment to detect the antimicrobial effects of crabrolin and its derivatives, including S. aureus (NCTC 10788), MRSA (NCTC 12493), E. coli (ATCC 8739), K. pneumoniae (ATCC 43816), E. faecium (NTCC-12697), and P. aeruginosa (ATCC 9027). The tested bacteria were cultured in Mueller Hinton broth medium (MHB) with norfloxacin (20 mg/L) as a positive control. All bacteria were incubated at 37 °C overnight and diluted to 5 × 10^5 CFU/mL before treating with the peptides. Stock solutions of 51,200 µM peptides were prepared in phosphate-buffered saline (PBS) and further diluted by a factor of two to 100 µM. Next, 1 µL of each peptide solution was mixed with 99 µL of bacterial subculture in a 96-well plate, and the plate was incubated at 37 °C for 20 h. After culturing, the absorbance of each well in the 96-well plate was analyzed at 550 nm using a Synergy HT plate reader (BioliseBioTek, Winooski, VT, USA). […] Starting with the MIC value, 10 µL of the solution from each well was dripped onto Mueller Hinton agar (MHA) plates. The plates were cultured at 37 °C for 20 h. After culturing, the lowest concentration with no colony growth was regarded as the MBC.

[2] = tested on: E. coli (ATCC 8739); assay: Antimicrobial susceptibility assay (MIC/MBC); type: cell-based, Escherichia coli; settings: for MIC: MHB, 37 °C, 20 h
Method: as §1

[3] = tested on: MRSA (NCTC 12493); assay: Antimicrobial susceptibility assay (MIC/MBC); type: cell-based, methicillin-resistant Staphylococcus aureus; settings: for MIC: MHB, 37 °C, 20 h
Method: as §1

[4] = tested on: K. pneumoniae (ATCC 43816); assay: Antimicrobial susceptibility assay (MIC/MBC); type: cell-based, Klebsiella pneumoniae; settings: for MIC: MHB, 37 °C, 20 h
Method: as §1

[5] = tested on: E. faecium (NTCC 12697); assay: Antimicrobial susceptibility assay (MIC/MBC); type: cell-based, Enterococcus faecium; settings: for MIC: MHB, 37 °C, 20 h
Method: as §1

[6] = tested on: P. aeruginosa (ATCC 9027); assay: Antimicrobial susceptibility assay (MIC/MBC); type: cell-based, Pseudomonas aeruginosa; settings: for MIC: MHB, 37 °C, 20 h
Method: as §1

[7] = tested on: MRSA (NCTC 12493) biofilm; type: cell-based, methicillin-resistant Staphylococcus aureus; settings: for MBIC: biofilm inhibitory rate more than 90%; for MBEC: eradication rate greater than 99.9%
Method: (§2) To measure the antibiofilm activity of crabrolin and its derivatives, four drug-resistant biofilm-forming strains, MRSA (NCTC 12493), K. pneumoniae (ATCC 43816), E. faecium (NTCC-12697), and P. aeruginosa (ATCC 9027), were used in this assay. Tryptic soy broth (TSB) (for the Gram-positive bacteria) and Luria–Bertani broth (LB) (for the Gram-negative bacteria) were used to culture the bacteria.
(§3) The mass of the biofilm in this assay was detected by the crystal violet staining method. First, 100 μL of 5 × 10^5 CFU/mL bacteria was incubated with 1 μL of different peptide solutions (ranging from 51200 μM to 100 μM) for 24 h at 37 °C with 200 rpm shaking. After the biofilm formation, 100 μL of PBS was used to rinse the biofilm twice. Next, 100 µL of methanol was added to fix the biofilm, and the biofilm was then dried. Thereafter, 100 μL of 0.1% crystal violet was added and left to stain for 15 min, and then the excess crystal violet was further rinsed by PBS. After the plate had air-dried, 30% glacial acetic acid was added to each well of the plate, and the plate was shaken for 15 min before the optical density (OD) value was measured at 595 nm using a Synergy HT plate reader. The MBIC value refers to the minimum concentration at which the biofilm inhibitory rate was more than 90%.
(§4) Different from measuring the MBIC value, to determine the MBEC value, 100 μL of the bacteria was first added to 96-well plates. After the biofilm was formed, the biofilm was rinsed with PBS twice to remove the planktonic cells, and then different concentrations of the drugs were added to the biofilm (the same as the MBIC assay). The mixture was incubated at 37 °C with shaking at 200 rpm. After 24 h of incubation, the mass of the biofilm was measured in the same way as the MBIC value, and the minimum concentration at which the eradication rate was greater than 99.9% was considered to be the MBEC value.

[8] = tested on: K. pneumoniae (ATCC 43816) biofilm; type: cell-based, Klebsiella pneumoniae; settings: for MBIC: biofilm inhibitory rate more than 90%; for MBEC: eradication rate greater than 99.9%
Method: as §2, §3, §4

[9] = tested on: E. faecium (NTCC12697) biofilm; type: cell-based, Enterococcus faecium; settings: for MBIC: biofilm inhibitory rate more than 90%; for MBEC: eradication rate greater than 99.9%
Method: as §2, §3, §4

[10] = tested on: P. aeruginosa (ATCC 9027) biofilm; type: cell-based, Pseudomonas aeruginosa; settings: for MBIC: biofilm inhibitory rate more than 90%; for MBEC: eradication rate greater than 99.9%
Method: as §2, §3, §4

[11] = tested on: human breast cancer cell line MCF-7; assay: Anti-proliferative assay (MTT); type: cell-based; settings: MCF-7, MTT, 24 h
Method: (§5) The human non-small-cell lung cancer line, H838, the human prostate carcinoma cell line, PC-3, the human glioblastoma astrocytoma, U251MG, the human breast cancer cell line, MCF-7, the human colorectal carcinoma cell line, HCT116, and the human keratinocyte cell line, HaCaT, were used to detect the anti-proliferative effects of the crabrolin and its derivatives in vitro. A total of 8000 cells were seeded in each well of a 96-well plate. After the cells had adhered to the wall, the cells were starved for 4 h. After the starvation, the cells were incubated with different concentrations of the drugs, ranging from 100 µM to 1 nM, for 24 h, with 0.1% Triton X-100 used as a positive control. Next, 10 µL of MTT (3-(4,5-dimethylthiazol-2-yl)-2,5-diphenyltetrazolium bromide) solution (5 mg/mL) was added to each well of the 96-well plate. After 2 h of incubation, 100 μL of DMSO-superseded medium was added to each well to dissolve the formazan crystals. Finally, the absorbance was detected using a Synergy HT plate reader at 570 nm.

[12] = tested on: human colorectal carcinoma cell line HCT-116; assay: Anti-proliferative assay (MTT); type: cell-based; settings: HCT-116, MTT, 24 h
Method: as §5

[13] = tested on: human glioblastoma astrocytoma U251MG; assay: Anti-proliferative assay (MTT); type: cell-based; settings: 24 h
Method: as §5

[14] = tested on: human keratinocyte cell line HaCaT; assay: Anti-proliferative assay (MTT); type: cell-based; settings: HaCaT (normal keratinocytes), 24 h
Method: as §5

[15] = tested on: human non-small-cell lung cancer line H838; assay: Anti-proliferative assay (MTT); type: cell-based; settings: 24 h
Method: as §5

[16] = tested on: human prostate carcinoma cell line PC-3; assay: Anti-proliferative assay (MTT); type: cell-based; settings: PC3, MTT, 24 h
Method: as §5

[17] = Hemolysis assay; type: cell-based, horse; settings: horse, erythrocytes (2% suspension); at the peptide's maximum MIC; relative to Triton X-100; read-out: Hemolysis under the Maximum MIC
Method: (§6) According to the procedures described in detail in a previous study, the debris and impurities of the erythrocytes were washed with PBS in advance to yield 2% of the erythrocyte suspension, and the drug concentration was diluted from 1024 µM to 2 µM with PBS [53]. The same amounts of the drug and the erythrocyte suspension were mixed and cultured at 37 °C for 2 h; 0.1% Triton X-100 (Sigma-Aldrich, St. Louis, MO, USA) was prepared as a positive control, and PBS was prepared as a negative control. After the incubation, the supernatant was transferred to a 96-well plate and then detected using a Synergy HT plate reader at 570 nm.

[18] = tested on: horse erythrocytes; assay: Hemolysis assay; type: cell-based; settings: for HC10 (10% hemolytic concentration) / HC50 (50% hemolytic concentration): erythrocytes, 37 °C, 2 h
Method: as §6

Compound | MBC [1] [µM] | MIC [1] [µM] | MBC [2] [µM] | MIC [2] [µM] | MBC [3] [µM] | MIC [3] [µM] | MBC [4] [µM] | MIC [4] [µM] | MBC [5] [µM] | MIC [5] [µM] | MBC [6] [µM] | MIC [6] [µM] | MBIC [7] | MBEC [7] | MBIC [8] | MBEC [8] | MBIC [9] | MBEC [9] | MBIC [10] | MBEC [10] | further results
CC[C@H](C)[C@H](NC(=O)[C@H](CCCCN)NC(=O)[C@@H]1CCCN1C(=O)[C@H](CC(C)C)NC(=O)[C@@H](N)Cc1ccccc1)C(=O)N[C@@H](CC(C)C)C(=O)N[C@@H](CCCNC(=N)N)C(=O)N[C@@H](CCCCN)C(=O)N[C@H](C(=O)N[C@H](C(=O)N[C@H](C(=O)N[C@@H](C)C(=O)N[C@@H](CC(C)C)C(N)=O)[C@@H](C)O)C(C)C)[C@@H](C)CC [Crabrolin-4K, FLPKILRKIVTAL-NH2] (H-FLPKILRKIVTAL-NH2) | 4 | 2 | 8 | 4 | 16 | 8 | 32 | 16 | 64 | 32 | 32 | 16 | 16 µM | 128 µM | 16 µM | 256 µM | 16 µM | > 512 µM | 512/512 µM | 512/512 µM | IC50 [11]: 23.2 µM; IC50 [12]: 42.9 µM; IC50 [13]: 23.5 µM; IC50 [14]: 32.6 µM; IC50 [15]: 22.6 µM; IC50 [16]: 20.6 µM; hemolysis at 2 h [17]: 10.4%; HC10 (10% hemolytic concentration) [18]: 68.628 µM; HC50 (50% hemolytic concentration) [18]: 217.816 µM
CC[C@H](C)[C@H](NC(=O)[C@H](CCCNC(=N)N)NC(=O)[C@@H]1CCCN1C(=O)[C@H](CC(C)C)NC(=O)[C@@H](N)Cc1ccccc1)C(=O)N[C@@H](CC(C)C)C(=O)N[C@@H](CCCNC(=N)N)C(=O)N[C@@H](CCCCN)C(=O)N[C@H](C(=O)N[C@H](C(=O)N[C@H](C(=O)N[C@@H](C)C(=O)N[C@@H](CC(C)C)C(N)=O)[C@@H](C)O)C(C)C)[C@@H](C)CC [Crabrolin-4R, FLPRILRKIVTAL-NH2] (H-FLPRILRKIVTAL-NH2) | 4 | 2 | 4 | 4 | 8 | 4 | 8 | 8 | 32 | 16 | 16 | 16 | 8 µM | 64 µM | 16 µM | 128 µM | 16 µM | > 512 µM | 128 µM | 256 µM | IC50 [11]: 20.3 µM; IC50 [12]: 47 µM; IC50 [13]: 25.1 µM; IC50 [14]: 35.8 µM; IC50 [15]: 11.4 µM; IC50 [16]: 18 µM; hemolysis at 2 h [17]: 6.18%; HC10 (10% hemolytic concentration) [18]: 62.117 µM; HC50 (50% hemolytic concentration) [18]: 216.266 µM
CC[C@H](C)[C@H](NC(=O)[C@H](CC(C)C)NC(=O)[C@@H]1CCCN1C(=O)[C@H](CC(C)C)NC(=O)[C@@H](N)Cc1ccccc1)C(=O)N[C@@H](CC(C)C)C(=O)N[C@@H](CCCNC(=N)N)C(=O)N[C@@H](CCCCN)C(=O)N[C@@H](CCCNC(=N)N)C(=O)N[C@H](C(=O)N[C@H](C(=O)N[C@@H](C)C(=O)N[C@@H](CC(C)C)C(N)=O)[C@@H](C)O)C(C)C [Crabrolin-9R, FLPLILRKRVTAL-NH2] (H-FLPLILRKRVTAL-NH2) | > 512 | 256 | > 512 | 256 | > 512 | > 512 | > 512 | > 512 | > 512 | > 512 | > 512 | > 512 | >512/>512 µM | >512/>512 µM | >512/>512 µM | >512/>512 µM | >512/>512 µM | >512/>512 µM | >512/>512 µM | >512/>512 µM | IC50 [11]: 6340 µM; IC50 [12]: 1880 µM; IC50 [13]: 1140 µM; IC50 [14]: 5850 µM; IC50 [15]: 2740 µM; IC50 [16]: 354 µM; Hemolytic activity (in words) ([18]; 1 to 512 μM): lost its hemolytic activity
